We go through 19 compounds from patent publication US20240207263A1, “SELECTIVE MODULATORS OF ATAXIA TELA[…] (ATM) KINASE AND USES THEREOF” (priority 2021, published 2024).

The target in this test is ATM (Homo sapiens (Human), UniProt Q13315). Nature of the test: biochemical. In kind it is biochemical. The following applies: read-out: ATM IC50. The text has this: Assay a): ATM Biochemical Potency
Data was collected by Caliper.

ATM, sequence (Q13315 whole entry, looked up): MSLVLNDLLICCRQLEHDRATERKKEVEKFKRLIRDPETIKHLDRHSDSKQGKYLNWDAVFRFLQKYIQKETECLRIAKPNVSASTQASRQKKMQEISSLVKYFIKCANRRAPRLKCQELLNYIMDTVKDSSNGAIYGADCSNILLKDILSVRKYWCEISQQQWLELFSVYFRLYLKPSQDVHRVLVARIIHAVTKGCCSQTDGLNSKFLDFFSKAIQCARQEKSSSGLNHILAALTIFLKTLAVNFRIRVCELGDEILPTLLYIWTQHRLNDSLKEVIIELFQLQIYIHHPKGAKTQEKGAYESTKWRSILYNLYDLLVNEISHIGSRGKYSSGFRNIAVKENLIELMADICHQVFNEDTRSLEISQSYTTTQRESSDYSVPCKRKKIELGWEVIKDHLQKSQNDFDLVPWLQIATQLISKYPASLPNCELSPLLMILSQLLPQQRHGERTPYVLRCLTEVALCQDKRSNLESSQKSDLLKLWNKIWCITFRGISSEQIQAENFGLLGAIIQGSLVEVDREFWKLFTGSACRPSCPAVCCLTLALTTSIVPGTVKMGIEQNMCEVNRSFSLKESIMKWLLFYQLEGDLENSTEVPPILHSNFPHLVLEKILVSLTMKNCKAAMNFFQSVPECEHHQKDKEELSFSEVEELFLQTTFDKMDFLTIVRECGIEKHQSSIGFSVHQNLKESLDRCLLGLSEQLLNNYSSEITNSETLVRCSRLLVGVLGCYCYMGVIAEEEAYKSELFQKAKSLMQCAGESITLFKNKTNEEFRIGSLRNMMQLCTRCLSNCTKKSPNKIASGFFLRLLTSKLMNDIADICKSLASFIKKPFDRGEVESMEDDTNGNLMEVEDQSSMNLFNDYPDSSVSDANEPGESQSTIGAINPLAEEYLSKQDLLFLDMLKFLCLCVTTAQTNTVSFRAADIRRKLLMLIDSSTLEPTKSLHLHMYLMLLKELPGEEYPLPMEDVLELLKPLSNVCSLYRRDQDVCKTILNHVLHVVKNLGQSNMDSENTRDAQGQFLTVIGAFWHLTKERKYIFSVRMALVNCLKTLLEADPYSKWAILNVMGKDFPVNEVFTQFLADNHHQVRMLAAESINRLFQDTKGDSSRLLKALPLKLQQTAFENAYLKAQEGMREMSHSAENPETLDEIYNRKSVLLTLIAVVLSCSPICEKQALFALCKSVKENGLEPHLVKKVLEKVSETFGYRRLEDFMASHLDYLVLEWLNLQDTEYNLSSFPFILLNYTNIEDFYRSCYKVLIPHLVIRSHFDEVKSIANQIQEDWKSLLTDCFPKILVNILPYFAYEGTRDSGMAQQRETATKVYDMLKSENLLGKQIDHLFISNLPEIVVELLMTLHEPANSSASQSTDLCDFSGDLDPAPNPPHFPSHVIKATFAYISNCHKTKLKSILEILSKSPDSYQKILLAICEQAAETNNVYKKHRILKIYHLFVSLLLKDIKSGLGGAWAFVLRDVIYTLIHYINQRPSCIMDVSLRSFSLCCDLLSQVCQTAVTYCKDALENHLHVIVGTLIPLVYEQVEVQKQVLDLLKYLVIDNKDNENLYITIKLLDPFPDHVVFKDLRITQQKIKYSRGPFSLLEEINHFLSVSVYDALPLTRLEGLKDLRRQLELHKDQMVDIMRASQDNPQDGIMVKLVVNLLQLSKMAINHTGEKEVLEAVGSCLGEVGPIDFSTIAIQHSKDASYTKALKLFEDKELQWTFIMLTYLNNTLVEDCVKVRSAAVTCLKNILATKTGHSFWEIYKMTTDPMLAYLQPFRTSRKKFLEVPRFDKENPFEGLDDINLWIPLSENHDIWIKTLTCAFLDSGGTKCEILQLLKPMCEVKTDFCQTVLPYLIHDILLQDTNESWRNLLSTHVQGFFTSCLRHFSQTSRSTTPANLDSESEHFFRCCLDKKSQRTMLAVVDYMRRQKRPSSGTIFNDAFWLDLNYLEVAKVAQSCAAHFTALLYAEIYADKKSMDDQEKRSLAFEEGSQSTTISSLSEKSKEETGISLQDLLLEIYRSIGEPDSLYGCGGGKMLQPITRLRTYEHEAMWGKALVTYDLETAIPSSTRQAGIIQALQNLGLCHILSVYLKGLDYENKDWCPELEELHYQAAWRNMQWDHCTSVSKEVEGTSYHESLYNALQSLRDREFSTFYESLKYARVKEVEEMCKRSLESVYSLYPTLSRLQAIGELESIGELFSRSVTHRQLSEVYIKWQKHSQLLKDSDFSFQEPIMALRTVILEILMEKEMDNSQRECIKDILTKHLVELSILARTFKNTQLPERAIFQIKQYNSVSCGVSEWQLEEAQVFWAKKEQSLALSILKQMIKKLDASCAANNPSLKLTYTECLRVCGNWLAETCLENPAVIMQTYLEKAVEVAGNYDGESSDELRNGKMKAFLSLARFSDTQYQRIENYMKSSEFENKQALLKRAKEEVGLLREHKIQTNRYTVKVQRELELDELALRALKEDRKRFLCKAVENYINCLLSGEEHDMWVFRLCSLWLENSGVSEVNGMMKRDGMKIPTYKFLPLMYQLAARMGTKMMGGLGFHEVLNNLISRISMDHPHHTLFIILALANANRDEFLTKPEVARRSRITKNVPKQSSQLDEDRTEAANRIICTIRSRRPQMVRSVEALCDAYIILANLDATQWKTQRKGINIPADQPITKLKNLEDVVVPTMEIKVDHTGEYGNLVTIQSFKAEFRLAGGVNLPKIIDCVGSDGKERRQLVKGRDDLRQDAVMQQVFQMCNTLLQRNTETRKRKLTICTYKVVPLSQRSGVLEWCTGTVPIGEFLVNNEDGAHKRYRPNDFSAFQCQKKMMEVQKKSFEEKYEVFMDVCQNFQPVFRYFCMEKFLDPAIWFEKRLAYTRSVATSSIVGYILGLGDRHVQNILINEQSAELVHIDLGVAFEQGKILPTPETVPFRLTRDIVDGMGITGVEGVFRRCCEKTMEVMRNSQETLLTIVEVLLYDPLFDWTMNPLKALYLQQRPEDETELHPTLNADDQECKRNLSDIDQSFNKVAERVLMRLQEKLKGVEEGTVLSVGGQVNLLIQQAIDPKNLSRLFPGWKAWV

One may read the IC50 as the concentration that inhibits the measured activity by half. For the compound `CO[C@@H]1CCN(CCO[C@H](C)c2ccc(-c3ccc4nnc5c(c4c3)n([C@H]3C[C@H](OC)C3)c(=O)n5C)cn2)C1` [Example 163, 1-(trans-3-methoxycyclobutyl)-8-(6-((R)-1-(2-((R)-3-methoxypyrrolidin-1-yl)ethoxy)ethyl)pyridin-3-yl)-3-methyl-1H-imidazo[4,5-c]cinnolin-2(3H)-one], the IC50 stood at 7.9 nM.
Under `CO[C@H]1C[C@H](n2c(=O)n(C)c3nnc4ccc(-c5ccc([C@@H](C)OCCN6CCC7(CC6)CC7)nc5)cc4c32)C1` [Example 164, 8-(6-((R)-1-(2-(6-azaspiro[2.5]octan-6-yl)ethoxy)ethyl)pyridin-3-yl)-1-(trans-3-methoxycyclobutyl)-3-methyl-1H-imidazo[4,5-c]cinnolin-2(3H)-one] stands 2.2 nM.
Under `CO[C@H]1C[C@H](n2c(=O)n(C)c3nnc4ccc(-c5ccc(COCCN(C)C)nc5)cc4c32)C1` [Example 165, 8-(6-((2-(dimethylamino)ethoxy)methyl)pyridin-3-yl)-1-(trans-3-methoxycyclobutyl)-3-methyl-1H-imidazo[4,5-c]cinnolin-2(3H)-one] stands 101 nM; under `CO[C@H]1C[C@H](n2c(=O)n(C)c3nnc4ccc(-c5ccc(COCCN6CCCC6)nc5)cc4c32)C1` [Example 166, 1-(trans-3-methoxycyclobutyl)-3-methyl-8-(6-((2-(pyrrolidin-1-yl)ethoxy)methyl)pyridin-3-yl)-1H-imidazo[4,5-c]cinnolin-2(3H)-one], 58 nM.
Under `CO[C@H]1C[C@H](n2c(=O)n(C)c3nnc4ccc(-c5ccc(COCCN6CCC(F)CC6)nc5)cc4c32)C1` [Example 168, 8-(6-((2-(4-fluoropiperidin-1-yl)ethoxy)methyl)pyridin-3-yl)-1-(trans-3-methoxycyclobutyl)-3-methyl-1H-imidazo[4,5-c]cinnolin-2(3H)-one] stands 48 nM; under `CO[C@H]1C[C@H](n2c(=O)n(C)c3nnc4ccc(-c5ccc(COCCN6CC7CC7C6)nc5)cc4c32)C1` (stereo partly drawn) [Example 169, 8-(6-((2-(3-azabicyclo[3.1.0]hexan-3-yl)ethoxy)methyl)pyridin-3-yl)-1-(trans-3-methoxycyclobutyl)-3-methyl-1H-imidazo[4,5-c]cinnolin-2(3H)-one], 42 nM; under `CO[C@H]1C[C@@H](n2c(=O)n(C)c3nnc4ccc(-c5ccc([C@@H](C)OCCN6CCC7(CC6)CC7)nc5)cc4c32)C1` [Example 170, 8-(6-((R)-1-(2-(6-azaspiro[2.5]octan-6-yl)ethoxy)ethyl)pyridin-3-yl)-1-(cis-3-methoxycyclobutyl)-3-methyl-1H-imidazo[4,5-c]cinnolin-2(3H)-one], 1.6 nM.
As for `CO[C@H]1C[C@@H](n2c(=O)n(C)c3nnc4ccc(-c5ccc([C@@H](C)OCCN6CCC7(CC7)C6)nc5)cc4c32)C1` [Example 171, 8-(6-((R)-1-(2-(5-azaspiro[2.4]heptan-5-yl)ethoxy)ethyl)pyridin-3-yl)-1-(cis-3-methoxycyclobutyl)-3-methyl-1H-imidazo[4,5-c]cinnolin-2(3H)-one], the IC50 was determined as 2.5 nM.
Under `CO[C@H]1C[C@@H](n2c(=O)n(C)c3nnc4ccc(-c5ccc(COCCN6CCCC6)nc5)cc4c32)C1` [Example 172, 1-(cis-3-methoxycyclobutyl)-3-methyl-8-(6-((2-(pyrrolidin-1-yl)ethoxy)methyl)pyridin-3-yl)-1H-imidazo[4,5-c]cinnolin-2(3H)-one] stands 21 nM; under `CO[C@H]1C[C@@H](n2c(=O)n(C)c3nnc4ccc(-c5ccc(COCCN6CCCCC6)nc5)cc4c32)C1` [Example 173, 1-(cis-3-methoxycyclobutyl)-3-methyl-8-(6-((2-(piperidin-1-yl)ethoxy)methyl)pyridin-3-yl)-1H-imidazo[4,5-c]cinnolin-2(3H)-one], 32 nM; under `CO[C@H]1C[C@@H](n2c(=O)n(C)c3nnc4ccc(-c5ccc(COCCN(C)C)nc5)cc4c32)C1` [Example 176, 8-(6-((2-(dimethylamino)ethoxy)methyl)pyridin-3-yl)-1-(cis-3-methoxycyclobutyl)-3-methyl-1H-imidazo[4,5-c]cinnolin-2(3H)-one], 65 nM.
Regarding `Cn1c(=O)n(C2COC2)c2c3cc(-c4ccc(COCCN5CCC(F)CC5)nc4)ccc3nnc21` [Example 179, 8-(6-((2-(4-fluoropiperidin-1-yl)ethoxy)methyl)pyridin-3-yl)-3-methyl-1-(oxetan-3-yl)-1H-imidazo[4,5-c]cinnolin-2(3H)-one], the IC50 is 729 nM.
Under `Cn1c(=O)n([C@H]2CCCOC2)c2c3cc(-c4ccc(COCCN5CCC(F)CC5)nc4)ccc3nnc21` [Example 182, (S)-8-(6-((2-(4-fluoropiperidin-1-yl)ethoxy)methyl)pyridin-3-yl)-3-methyl-1-(tetrahydro-2H-pyran-3-yl)-1H-imidazo[4,5-c]cinnolin-2(3H)-one] stands 21 nM.
For the compound `Cn1c(=O)n([C@H]2CCCOC2)c2c3cc(-c4ccc(COCCN5CC6CC6C5)nc4)ccc3nnc21` (stereo partly drawn) [Example 183, 8-(6-((2-(3-azabicyclo[3.1.0]hexan-3-yl)ethoxy)methyl)pyridin-3-yl)-3-methyl-1-((S)-tetrahydro-2H-pyran-3-yl)-1H-imidazo[4,5-c]cinnolin-2(3H)-one], the IC50 was 20 nM.
For the compound `CC(C)n1c(=O)n(C)c2nnc3ccc(-c4ccc([C@@H](C)OCC(=O)O)nc4)cc3c21` [Example 216, (R)-2-(1-(5-(1-isopropyl-3-methyl-2-oxo-2,3-dihydro-1H-imidazo[4,5-c]cinnolin-8-yl)pyridin-2-yl)ethoxy)acetic acid], the IC50 worked out at 339 nM.
Under `CC(C)n1c(=O)n(C)c2nnc3ccc(-c4ccc(C(C)(C)OCCN5CC6CC6C5)nc4)cc3c21` (stereo not shown) [Example 217, 8-(6-(2-(2-(3-azabicyclo[3.1.0]hexan-3-yl)ethoxy)propan-2-yl)pyridin-3-yl)-1-isopropyl-3-methyl-1H-imidazo[4,5-c]cinnolin-2(3H)-one] stands 72 nM; under `CCC(OCCN1CCCC1)c1ccc(-c2ccc3nnc4c(c3c2)n(C(C)C)c(=O)n4C)cn1` (stereo not shown) [Example 219, 1-isopropyl-3-methyl-8-(6-(1-(2-(pyrrolidin-1-yl)ethoxy)propyl)pyridin-3-yl)-1H-imidazo[4,5-c]cinnolin-2(3H)-one], 57 nM.
Under `CCCC(OCCN1CCCC1)c1ccc(-c2ccc3nnc4c(c3c2)n(C(C)C)c(=O)n4C)cn1` (stereo not shown) [Example 220, 1-isopropyl-3-methyl-8-(6-(1-(2-(pyrrolidin-1-yl)ethoxy)butyl)pyridin-3-yl)-1H-imidazo[4,5-c]cinnolin-2(3H)-one] stands 147 nM; under `CC(C)C(OCCN1CCCC1)c1ccc(-c2ccc3nnc4c(c3c2)n(C(C)C)c(=O)n4C)cn1` (stereo not shown) [Example 221, 1-isopropyl-3-methyl-8-(6-(2-methyl-1-(2-(pyrrolidin-1-yl)ethoxy)propyl)pyridin-3-yl)-1H-imidazo[4,5-c]cinnolin-2(3H)-one], 156 nM.
